Here are results for 15 compounds from patent US7303876B2 (Applera Corporation, priority 2000, dated 2007).

Assay [1] has as its system Liver tissue. As to the kind of experiment: Liver tissue disaggregation by 1% surfactant with or without Proteinase K at 60° C. Details: Tissue Disaggregation: scale not given here. The conditions noted are these: for Tissue Disaggregation: 60° C., 1% surfactant. How it is done: To evaluate the ability of various cationic surfactants to increase the digestion of tissue by Proteinase K, liver slices were digested using reaction compositions including one of the sixteen surfactants (shown in Table 4), both with and without Proteinase K. The reducing agent dithiothreitol (DTT) was included to evaluate the effect of reducing conditions on tissue digestion. […] One of the sixteen surfactants was added to one pair of tubes to yield a final concentration of 1% surfactant. The seventeenth pair of tubes served as non-surfactant controls. One milligram (mg) of Proteinase K was added to one tube of each of the seventeen pairs.
PK=presence or absence of Proteinase K in the reaction composition; Y=Proteinase K was present; N=Proteinase K was not present in the reaction composition.

Assay [2] has as its system slices of liver. As to the kind of experiment: Maceration of liver slices by reaction compositions at 65° C. How it is done:
Initially, a series of reaction compositions were analyzed for their ability to disaggregate a biological sample, e.g., slices of liver. These reaction compositions comprised 100 mM Tris, pH 8.0, 20 mM dithiothreitol (DTT), and optionally,1 mg/ml Proteinase K, surfactants (e.g., cationic, nonionic and anionic detergents), chaotropes, or the additive 1-methyl-2-pyrollidinone (Sigma). Each reaction compositions was placed in a tube with a slice of liver and then incubated at 65° C. The tubes were observed periodically to determine which reaction compositions were able to efficiently macerate the sample.

[3] abbreviates: Fifteen Minutes Incubation, Proteinase K not present (N).
Setting [4] is: Fifteen Minutes Incubation, Proteinase K present (Y).
Setting [5] is: Fifty-Two Minutes Incubation, Proteinase K not present (N).
Setting [6] is: Fifty-Two Minutes Incubation, Proteinase K present (Y).
[7] abbreviates: 1 mg/ml Proteinase K, 16-24 hr, 65° C., additive 0.1%.
Setting [8] is: 1 mg/ml Proteinase K, 16-24 hr, 65° C., additive 1%.
Setting [9] is: 1 mg/ml Proteinase K, 1 hr, 65° C., additive 0.1%.
The mark [10] stands for this setting: 1 mg/ml Proteinase K, 1 hr, 65° C., additive 1%.
Setting [11] is: No Proteinase K, 16-24 hr, 65° C., additive 2%.
Where [12] appears, read: No Proteinase K, 72 hr, 65° C., additive 2%.

Where two headings read alike, the source gives them in different places.

On to `O[C@H](CS)[C@H](O)CS` (racemic) [DTT, dithiothreitol], for which the “effect of reducing agent on tissue disaggregation” value in assay [1] (20 mM dithiothreitol) is “did not seem to significantly effect tissue disaggregation”.

`CCCCCCCCCCCC[N+](C)(C)Cc1ccccc1.[Br-]` [Benzyldimethyldodecylammonium bromide]: the “Tissue Disaggregation” value in assay [1] (setting [3]) came to 0; in assay [1] (setting [4]), 0; in assay [1] (setting [5]), 0; in assay [1] (setting [6]) it was 1.

With `CCCCCCCCCCCCCCCC[N+](C)(C)Cc1ccccc1.[Br-]` [Benzyldimethylhexadecylammonium bromide], the “Tissue Disaggregation” value amounted to 0 in assay [1] (setting [3]), 0 in assay [1] (setting [4]), 0 in assay [1] (setting [5]) and 1 in assay [1] (setting [6]).

For the compound `C[C@H](CCC(=O)O)[C@H]1CC[C@H]2[C@@H]3[C@H](O)C[C@@H]4C[C@H](O)CC[C@]4(C)[C@H]3CC[C@]12C` [Chenodeoxycholic Acid], the “maceration of liver slice” value in assay [2] (setting [7]), in assay [2] (setting [8]), in assay [2] (setting [9]), in assay [2] (setting [10]) and in assay [2] (setting [11]) was 0% in each case.

As for `C[C@H](CCC(=O)O)[C@H]1CC[C@H]2[C@@H]3[C@H](O)C[C@@H]4C[C@H](O)CC[C@]4(C)[C@H]3C[C@H](O)[C@]12C` [Cholic Acid], the “maceration of liver slice” value in assay [2] (setting [11]) came out at 0%.

As for `C[C@H](CCC(=O)NCC(=O)O)[C@H]1CC[C@H]2[C@@H]3[C@H](O)C[C@@H]4C[C@H](O)CC[C@]4(C)[C@H]3C[C@H](O)[C@]12C` [Glycocholic Acid], the “maceration of liver slice” value in assay [2] (setting [7]), in assay [2] (setting [8]), in assay [2] (setting [9]) and in assay [2] (setting [10]) was 0% in each case.

`Cl.N=C(N)N` [Guanidinium chloride]: the “maceration of liver slice” value was found to be 0% in assay [2] (1 mg/ml Proteinase K, 2-5 hr, 65° C., additive 2 M) and 0% in assay [2] (No Proteinase K, 2-5 hr, 65° C., additive 2 M).

For the compound `N#CS.N=C(N)N` [Guanidinium thiocyanate], the “maceration of liver slice” value in assay [2] (1 mg/ml Proteinase K, 2-5 hr, 65° C., additive 1 M) is recorded as 25%; in assay [2] (No Proteinase K, 2-5 hr, 65° C., additive 1 M) it was 0%.

On to `CCCCC(CC)COS(=O)(=O)[O-].[Na+]` (stereo not drawn) [NiaProof Type 8], for which the “maceration of liver slice” value in assay [2] (setting [7]) was 0%; in assay [2] (setting [8]), 0%; in assay [2] (setting [9]), 0%; in assay [2] (setting [10]), 0%; in assay [2] (No Proteinase K, 2-5 hr, 65° C., additive 2%) it was 0%.

`CCCCCCCC(=O)O` [Octanonic Acid]: in assay [2] (setting [12]), the “maceration of liver slice” value amounted to 0%.

`CCCCCCCCS(=O)(=O)O` [Octyl sulfonate]: the “maceration of liver slice” value in assay [2] (setting [12]) was 0%.

Take `C[C@H](CCC(=O)NCCS(=O)(=O)O)[C@H]1CC[C@H]2[C@@H]3[C@H](O)C[C@@H]4C[C@H](O)CC[C@]4(C)[C@H]3CC[C@]12C` [Taurochenodeoxycholic Acid]: the “maceration of liver slice” value in assay [2] (setting [7]), in assay [2] (setting [8]), in assay [2] (setting [9]) and in assay [2] (setting [10]) was 0% throughout.

Turning to `C[C@H](CCC(=O)NCCS(=O)(=O)O)[C@H]1CC[C@H]2[C@@H]3[C@H](O)C[C@@H]4C[C@H](O)CC[C@]4(C)[C@H]3C[C@H](O)[C@]12C` [Taurocholic Acid], the “maceration of liver slice” value in assay [2] is 0%.

For the compound `C[C@H](CCC(=O)NCCS(=O)(=O)O)[C@H]1CC[C@H]2[C@@H]3CC[C@@H]4C[C@H](O)CC[C@]4(C)[C@H]3C[C@H](O)[C@]12C` [Taurodeoxycholic Acid], the “maceration of liver slice” value in assay [2] (setting [7]), in assay [2] (setting [8]), in assay [2] (setting [9]) and in assay [2] (setting [10]) was 0% in each case.

Turning to `C[N+](C)(C)C.[Cl-]` [Tetramethylammonium chloride], the “maceration of liver slice” value in assay [2] (1 mg/ml Proteinase K, 16-24 hr, 65° C., additive 0.1 M) was determined as 0%; in assay [2] (1 mg/ml Proteinase K, 16-24 hr, 65° C., additive 1 M), 0%; in assay [2] (1 mg/ml Proteinase K, 1 hr, 65° C., additive 0.1 M), 0%; in assay [2] (1 mg/ml Proteinase K, 1 hr, 65° C., additive 1 M), 0%; in assay [2] (No Proteinase K, 16-24 hr, 65° C., additive 0.1 M) it was 0%; in assay [2] (No Proteinase K, 16-24 hr, 65° C., additive 1 M) it was 0%.
